Tested on: Jurkat cell
Test: Cytotoxicity experiment (LDH analysis) on Jurkat cells exposed to Triton X-100
Assay type: cell-based
Conditions: Jurkat cell exposed to Triton X-100 (0 to 0.1%) for 30 min in CO2 incubator; LDH in separated culture medium, absorbance at 490 nm
Method: After the cell treated using Triton X-100 according to the Example of the present invention was separated using the apparatus for separating the microparticles, the apparatus fastened to the 1 mL syringe, and the conventional centrifuge, the cytotoxicity (%) was measured from the collected cell culture medium.
Specifically, a Jurkat cell was cultured in RPMI (WELGENE Inc., Korea) suspended using a 10% FBS (WELGENE) and a 1% antibiotic solution containing penicillin and streptomycin (WELGENE). In order to visualize the flow of the cell, the cell was washed with DPBS (WELGENE) and then dyed using a 10 μM CFDA cell tracer (Invitrogen) at room temperature for 15 min. After the dyeing, the cell was washed twice with DPBS.
The Jurkat cell was exposed to Triton X-100 at various concentrations (0 to 0.1%) in a CO2 incubator for 30 min. Subsequently, the fluid from which the microparticles were separated was obtained using the apparatus for separating the microparticles, to which the syringe was fastened, according to the present invention (manual injection at room temperature for 3 min), and the centrifuge (at 1000 rpm and room temperature for 5 min). […] The lactate dehydrogenase (LDH) analysis was performed in accordance with the manufacturer's directions (#88953, Pierce, Rockford, Ill.), and the absorbance was then measured at 490 nm. […]

Substance: Triton X-100
- IC50 value of Triton X-100 (cytotoxicity, LDH analysis): 0.0076%

Source: US10722886B2, “Apparatus for separating fine particles and separating method using same” (UNIVERSITY-INDUSTRY COOPERATION GROUP OF KYUNG HEE …, priority 2014, dated 2020)
